Measured values: PubChem BioAssay AID1963959 (Molecular Pharmacology Branch, DTP, NCI, 2024)

Test system: T-47D spheroids with HUVEC/MSC, viability
Assay: Anticancer human tumor T-47D cell line growth inhibition [PI3K];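 also: spheroids exposed to agents for seven days before reading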;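 as to viability, T/C: percent of DMSO vehicle control luminescence so 100% = untreated growth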
Settings: for IC50: curve of first compound; for viability, T/C: stronger effect = lower value
From the text: Combinatorial screen of targeted agents with the PI3K inhibitors inavolisib, alpelisib, duvelisib, and copanlisib in multi-cell type tumor spheroids
A high-throughput screen of multi-cell type tumor spheroids was designed to identify active combinations of targeted small molecules and PI3K pathway inhibitors. Complex spheroids include a stromal component modeled by human endothelial cells (HUVEC) and fibroblasts modeled by human mesenchymal stem cells (MSCs). The concentration ranges selected for each drug and investigational agent were based upon clinically achievable concentrations if the clinical Cmax of the agent was known.
Compounds. The drugs and investigational agents: inavolisib (NSC800729), alpelisib (NSC765974), duvelisib (NSC772469), copanlisib (NSC816437), ipatasertib (NSC767898), afuresertib (NSC778305), talazoparib (NSC767125), sapanisertib (NSC764658), selumetinib (NSC741078), tovorafenib (DAY101, NSC766906), vemurafenib (NSC761431), ravoxertinib (NSC781343), sotorasib (NSC818433), MRTX1133 (NSC 836407), abemaciclib (NSC 768073), palbociclib (NSC758247), venetoclax (NSC 766270), SY5609 (NSC837396), enzalutamide (NSC755605), and darolutamide (NSC825331), were obtained from the National Cancer Institute (NCI) Developmental Therapeutics Program Chemical Repository. The FDA-approved anticancer drug set is available from the NCI Developmental Therapeutics Program. […] The stock solutions were prepared in dimethyl sulfoxide (DMSO, Sigma-Aldrich, St. Louis, MO, cat. D2650) at 800-fold the tested concentration and stored at -70 degrees C prior to their use. All drugs and investigational agents were tested over a range starting from a high concentration at or near the clinical Cmax and decreasing in half-log increments. If the clinical Cmax for an agent had not been determined, the highest concentration tested was 10 microM.
Cell Culture. All cells were maintained in an incubator at 37 degrees C and 5% CO2 with 95% humidity. The PDC lines were cultured according to standard operating procedures established by the NCI PDMR (https://pdmr.cancer.gov/sops/default.htm). All PDCs were thawed and cultured in Matrigel-coated flasks prepared with a working solution of 1X Ham's F-12 nutrient mix, without supplementation (Invitrogen, Waltham, MA, cat. 11765054), 100 U/mL penicillin-streptomycin (Invitrogen, cat. 15140122), and 2.5% Matrigel (Corning Inc., Corning, NY, cat. 354248) for the first three passages. The 354836-022-R-J1-PDC, 475296-252-R-J1-PDC, and 997726-040-R-J2-PDC lines were cultured in 6A media, which includes advanced DMEM/F-12 (Thermo Fisher Scientific, cat. 12634028), 10 mM HEPES (Thermo Fisher Scientific, cat. 15630080), 1X GlutaMAX supplement (Thermo Fisher Scientific, cat. 35050061), 0.1 mg/mL primocin (InvivoGen, San Diego, CA, cat. ant-pm-2), 10% defined fetal bovine serum, heat inactivated (HyClone Laboratories Inc., Logan, UT, cat. SH30070.03HI), 50% L-WRN conditioned media (ATCC, cat. CRL-3276), 1.25 mM N-Acetyl-L-cysteine (Sigma-Aldrich, cat. A9165), 10 mM nicotinamide (Sigma-Aldrich, cat. N0636), 1X B-27 supplement (Thermo Fisher Scientific, cat. 17504044), 1X N-2 supplement (Thermo Fisher Scientific, cat. 17502048), and 10 microM Y-27632 dihydrochloride (Tocris Bioscience, Bristol, United Kingdom, cat. 1254). The 624824-186-R-J2-PDC line was cultured in 6C/Colon 1B media, which includes all 6A media components plus 50 ng/mL human EGF recombinant protein (Thermo Fisher Scientific, cat. PHG0311). […]

[1] = second compound 0.0316 µM, first compound 0.0316 µM
[2] = second compound 0.0316 µM, first compound 0.1 µM
[3] = second compound 0.0316 µM, first compound 0.316 µM
[4] = second compound 0.0316 µM, first compound 1 µM
[5] = second compound 0.0316 µM, first compound 3.16 µM
[6] = second compound 0.0316 µM, first compound 10 µM
[7] = second compound 0.1 µM, first compound 0.0316 µM
[8] = second compound 0.1 µM, first compound 0.1 µM
[9] = second compound 0.1 µM, first compound 0.316 µM
[10] = second compound 0.1 µM, first compound 1 µM
[11] = second compound 0.1 µM, first compound 3.16 µM
[12] = second compound 0.1 µM, first compound 10 µM
[13] = second compound 0.316 µM, first compound 0.0316 µM
[14] = second compound 0.316 µM, first compound 0.1 µM
[15] = second compound 0.316 µM, first compound 0.316 µM
[16] = second compound 0.316 µM, first compound 1 µM
[17] = second compound 0.316 µM, first compound 3.16 µM
[18] = second compound 0.316 µM, first compound 10 µM
[19] = second compound 1 µM, first compound 0.0316 µM
[20] = second compound 1 µM, first compound 0.1 µM
[21] = second compound 1 µM, first compound 0.316 µM
[22] = second compound 1 µM, first compound 1 µM
[23] = second compound 1 µM, first compound 3.16 µM
[24] = second compound 1 µM, first compound 10 µM

Cn1ncc(Cl)c1-c1cc(C(=O)NC(CN)Cc2cccc(F)c2)sc1Cl (centres undefined) + CC(Nc1ccc2c(c1)OCCn1cc(N3C(=O)OCC3C(F)F)nc1-2)C(N)=O
IC50 (second compound 0.00316 µM): > 10 µM | IC50 (second compound 0.01 µM): > 10 µM | IC50 (second compound 0.0316 µM): > 10 µM | IC50 (second compound 0.1 µM): > 10 µM | IC50 (second compound 0.316 µM): > 10 µM | IC50 (second compound 1 µM): < 0.0316 µM | viability, T/C (second compound 0.00316 µM, first compound 0.0316 µM): 91.4% | viability, T/C (second compound 0.00316 µM, first compound 0.1 µM): 86.4% | viability, T/C (second compound 0.00316 µM, first compound 0.316 µM): 80.5% | viability, T/C (second compound 0.00316 µM, first compound 1 µM): 81.8% | viability, T/C (second compound 0.00316 µM, first compound 3.16 µM): 73.7% | viability, T/C (second compound 0.00316 µM, first compound 10 µM): 81.5% | viability, T/C (second compound 0.01 µM, first compound 0.0316 µM): 91.2% | viability, T/C (second compound 0.01 µM, first compound 0.1 µM): 89.6% | viability, T/C (second compound 0.01 µM, first compound 0.316 µM): 82.9% | viability, T/C (second compound 0.01 µM, first compound 1 µM): 70.2% | viability, T/C (second compound 0.01 µM, first compound 3.16 µM): 65.5% | viability, T/C (second compound 0.01 µM, first compound 10 µM): 87.9% | viability, T/C [1]: 82.1% | viability, T/C [2]: 82.7% | viability, T/C [3]: 68.1% | viability, T/C [4]: 67.8% | viability, T/C [5]: 59.5% | viability, T/C [6]: 90.9% | viability, T/C [7]: 95.7% | viability, T/C [8]: 92.7% | viability, T/C [9]: 71.8% | viability, T/C [10]: 55.6% | viability, T/C [11]: 58.9% | viability, T/C [12]: 75% | viability, T/C [13]: 71.4% | viability, T/C [14]: 59.7% | viability, T/C [15]: 60.8% | viability, T/C [16]: 49.7% | viability, T/C [17]: 47.2% | viability, T/C [18]: 64.6% | viability, T/C [19]: 50.8% | viability, T/C [20]: 49.5% | viability, T/C [21]: 49.8% | viability, T/C [22]: 45.5% | viability, T/C [23]: 50.3% | viability, T/C [24]: 59.3%

CC(Cn1ccc(-c2ccc(C#N)c(Cl)c2)n1)NC(=O)c1cc(C(C)O)[nH]n1 (centres undefined) + CC(Nc1ncnc2nc[nH]c12)c1cc2cccc(Cl)c2c(=O)n1-c1ccccc1
IC50 (second compound 0.0316 µM): > 10 µM | IC50 (second compound 0.1 µM): > 10 µM | IC50 (second compound 0.316 µM): > 10 µM | IC50 (second compound 1 µM): > 10 µM | IC50 (second compound 3.16 µM): > 10 µM | IC50 (second compound 10 µM): > 10 µM | viability, T/C [1]: 83.6% | viability, T/C [2]: 76.1% | viability, T/C [3]: 87.8% | viability, T/C [4]: 90% | viability, T/C [5]: 86.2% | viability, T/C [6]: 51% | viability, T/C [7]: 93.1% | viability, T/C [8]: 80% | viability, T/C [9]: 75.7% | viability, T/C [10]: 82.3% | viability, T/C [11]: 85.6% | viability, T/C [12]: 54.9% | viability, T/C [13]: 90.7% | viability, T/C [14]: 107% | viability, T/C [15]: 86.4% | viability, T/C [16]: 87.5% | viability, T/C [17]: 74.9% | viability, T/C [18]: 62.1% | viability, T/C [19]: 80.2% | viability, T/C [20]: 77.4% | viability, T/C [21]: 92.9% | viability, T/C [22]: 80.9% | viability, T/C [23]: 74.4% | viability, T/C [24]: 64% | viability, T/C (second compound 3.16 µM, first compound 0.0316 µM): 84.5% | viability, T/C (second compound 3.16 µM, first compound 0.1 µM): 86.5% | viability, T/C (second compound 3.16 µM, first compound 0.316 µM): 87.7% | viability, T/C (second compound 3.16 µM, first compound 1 µM): 85.7% | viability, T/C (second compound 3.16 µM, first compound 3.16 µM): 81.4% | viability, T/C (second compound 3.16 µM, first compound 10 µM): 52.4% | viability, T/C (second compound 10 µM, first compound 0.0316 µM): 80.7% | viability, T/C (second compound 10 µM, first compound 0.1 µM): 84.3% | viability, T/C (second compound 10 µM, first compound 0.316 µM): 75.2% | viability, T/C (second compound 10 µM, first compound 1 µM): 80.1% | viability, T/C (second compound 10 µM, first compound 3.16 µM): 72.2% | viability, T/C (second compound 10 µM, first compound 10 µM): 56.4%
